Residues, ends and D or L forms follow the SMILES beside them.
Tested on: Male rats
Assay: Sleep-wake cycle analysis by telemetric EEG recording (23 hours) in rats
Assay type: in vivo, rat
Details: for latency to REM sleep onset (change): FIG. 1B; for latency to SWS onset (change): FIG. 1A
Procedure: Male rats were anesthetized and surgically implanted with 2 surface electrodes in the frontoparietal cortex and 2 depth electrodes in the CA1 region of the hippocampus (AP+5.0 mm, L±2.5 mm, V+7.0 mm). After ≥10 days recovery, telemetric transmitters were connected to electrodes for electroencephalographic (EEG) recordings. On the day of experiment, rats were injected at the beginning of the light phase with rapastinel (3, 10, or 30 mg/kg, IV), ketamine (30 mg/kg, IP), or the positive control zolpidem (12 mg/kg, PO) using a treatment schedule based on a cross-over design (n=9-10/dose/group) in which rats received zolpidem or rapastinel at session 1 and then rapastinel and/or ketamine at sessions 2-4. Physiological saline was used as the vehicle control
Sleep-wake cycles were measured continuously following rapastinel treatment for the next 23 hours and were analyzed based on a spectral power analysis. Latencies to first occurrence of SWS and REM sleep, as well as percent time spent in SWS, REM sleep, and wakefulness, were calculated for the total recording sessions (23 hours), the half cycles (0-12 and 12-23 hours), and 5 time segments (0-4, 4-8, 8-12, 12-18, and 18-23 hours). Depth of SWS (defined as the ratio between alpha and delta spectral power) was also calculated. Differences between vehicle and test drugs were calculated for all variables, for each animal, and for the means of the animals per treatment group, and analyzed using a paired t-test

[1] = ketamine 30 mg/kg IP, 12-23 hours post-dose, P<0.05
[2] = rapastinel, entire recording session, FIG. 2

## Cc1ccc(-c2nc3ccc(C)cn3c2CC(=O)N(C)C)cc1 [Zolpidem, zolpidem]
Zolpidem 12 mg/kg PO, 0-12 hours post-dose, P<0.05
  percentage of active waking: significantly decreased
Zolpidem 12 mg/kg PO, 4-8 hours post-dose, P<0.05
  duration of REM sleep: significantly decreased
Zolpidem 12 mg/kg PO, >8 hours post-dose, P<0.05, FIG. 2B
  depth of SWS: significantly increased
Zolpidem 12 mg/kg PO, FIG. 4A
  duration of waking: no effect
Zolpidem 12 mg/kg PO, P<0.01
  latency to REM sleep onset (change): +67%
Zolpidem 12 mg/kg PO, P<0.05
  latency to SWS onset (change): −50%

## CNC1(c2ccccc2Cl)CCCCC1=O (centres unmarked) [Ketamine, ketamine]
Ketamine 30 mg/kg IP, 0-4 hours post-dose
  alpha/delta ratio (depth of SWS): concomitant decrease
Ketamine 30 mg/kg IP, 0-4 hours post-dose, FIG. 2A
  duration of SWS: decreased
Ketamine 30 mg/kg IP, 0-4 hours post-dose, P<0.001
  duration of REM sleep: decreased
Ketamine 30 mg/kg IP, 12-23 hours post-dose, P<0.01
  waking (duration): small but significant decrease
[1]
  REM sleep (duration): compensatory increase
  SWS duration: significantly increased
  percentage of active waking: significantly decreased
Ketamine 30 mg/kg IP, P<0.001
  latency to SWS onset (change): +393%
  latency to REM sleep onset (change): +104%
Ketamine 30 mg/kg IP, first 4 hours post-dose, P<0.001
  duration of waking: significantly increased

## C[C@@H](O)[C@H](N)C(=O)N1CCC[C@H]1C(=O)N1CCC[C@H]1C(=O)N[C@H](C(N)=O)[C@@H](C)O [Rapastinel, rapastinel] (H-TPPT-NH2)
Rapastinel 3 mg/kg IV, P<0.05
  latency to SWS onset (change): −33%
Rapastinel 30 mg/kg IV, 8-12 hours post-dose, P<0.01
  percentage of active waking: small but significant decrease
Rapastinel 30 mg/kg IV, 18-23 hours post-dose, P<0.05
  percentage of active waking: small but significant decrease
Rapastinel 3, 10, and 30 mg/kg IV
  latency to REM sleep onset: no significant effect
Rapastinel 3, 10, and 30 mg/kg IV, FIG. 3
  duration of REM sleep: did not have a significant effect
Rapastinel 3, 10, or 30 mg/kg IV, FIG. 4A
  duration of waking: no effect
Rapastinel 10 and 30 mg/kg IV
  latency to SWS onset: no significant effect
rapastinel, all doses and time segments other than the 30 mg/kg exceptions, FIG. 4B
  percentage of active waking: no effect
[2]
  depth of SWS: no significant effect
  duration of SWS: no significant effect

— patent publication US20200197365A1, “TREATMENT WITH NMDA RECEPTOR MODULATORS” (Naurex Inc., priority 2017, published 2020)
